Assay: xn = mol fraction of the nth substance listed
Settings: for surface tension liquid-gas: Maximal bubble pressure; for mass density: 100 kPa, Liquid, Vibrating tube method

CCCC[n+]1ccccc1.N#C[N-]C#N [1-butylpyridinium dicyanamide] + CC(C)O
Settings	mass density [kg/m3]	surface tension liquid-gas [mN/m]
288.15 K, x1 = 0.1008	857.57	23.3
288.15 K, x1 = 0.2007	906.69	25.7
288.15 K, x1 = 0.3005	944.56	26.9
288.15 K, x1 = 0.3999	974.5	28.5
288.15 K, x1 = 0.5005	999.39	30.5
288.15 K, x1 = 0.5998	1019.53	33.2
288.15 K, x1 = 0.7004	1036.66	35.9
288.15 K, x1 = 0.7972	1050.66	39.9
288.15 K, x1 = 0.9032	1063.81	45.5
288.15 K, x1 = 1	1074.97	56.3
293.15 K, x1 = 0.1008	853.79	22.8
293.15 K, x1 = 0.2007	903.11	25.2
293.15 K, x1 = 0.3005	941.13	26.7
293.15 K, x1 = 0.3999	971.16	28
293.15 K, x1 = 0.5005	996.12	30.2
293.15 K, x1 = 0.5998	1016.32	32.9
293.15 K, x1 = 0.7004	1033.49	35.7
293.15 K, x1 = 0.7972	1047.51	39.6
293.15 K, x1 = 0.9032	1060.69	45.2
293.15 K, x1 = 1	1071.9	56
298.15 K, x1 = 0.1008	849.98	22.3
298.15 K, x1 = 0.2007	899.51	24.8
298.15 K, x1 = 0.3005	937.68	26.2
298.15 K, x1 = 0.3999	967.82	27.8
298.15 K, x1 = 0.5005	992.86	29.9
298.15 K, x1 = 0.5998	1013.12	32.5
298.15 K, x1 = 0.7004	1030.32	35.3
298.15 K, x1 = 0.7972	1044.37	39.3
298.15 K, x1 = 0.9032	1057.57	44.9
298.15 K, x1 = 1	1068.83	55.7
303.15 K, x1 = 0.1008	846.14	22
303.15 K, x1 = 0.2007	895.9	24.5
303.15 K, x1 = 0.3005	934.24	25.9
303.15 K, x1 = 0.3999	964.49	27.5
303.15 K, x1 = 0.5005	989.61	29.6
303.15 K, x1 = 0.5998	1009.92	32.3
303.15 K, x1 = 0.7004	1027.16	35.1
303.15 K, x1 = 0.7972	1041.24	39.1
303.15 K, x1 = 0.9032	1054.46	44.7
303.15 K, x1 = 1	1065.76	55.5
308.15 K, x1 = 0.1008	842.28	21.6
308.15 K, x1 = 0.2007	892.3	24.1
308.15 K, x1 = 0.3005	930.8	25.5
308.15 K, x1 = 0.3999	961.18	27.1
308.15 K, x1 = 0.5005	986.37	29.3
308.15 K, x1 = 0.5998	1006.74	32
308.15 K, x1 = 0.7004	1024.02	34.8
308.15 K, x1 = 0.7972	1038.13	38.8
308.15 K, x1 = 0.9032	1051.37	44.4
308.15 K, x1 = 1	1062.7	55.2
313.15 K, x1 = 0.1008	838.39	21.3
313.15 K, x1 = 0.2007	888.69	23.8
313.15 K, x1 = 0.3005	927.36	25.2
313.15 K, x1 = 0.3999	957.86	26.8
313.15 K, x1 = 0.5005	983.14	29
313.15 K, x1 = 0.5998	1003.56	31.7
313.15 K, x1 = 0.7004	1020.89	34.5
313.15 K, x1 = 0.7972	1035.03	38.5
313.15 K, x1 = 0.9032	1048.3	44.1
313.15 K, x1 = 1	1059.66	54.9
318.15 K, x1 = 0.1008	834.48	20.8
318.15 K, x1 = 0.2007	885.06	23.4
318.15 K, x1 = 0.3005	923.93	24.9
318.15 K, x1 = 0.3999	954.55	26.5
318.15 K, x1 = 0.5005	979.93	28.6
318.15 K, x1 = 0.5998	1000.4	31.4
318.15 K, x1 = 0.7004	1017.77	34.2
318.15 K, x1 = 0.7972	1031.94	38.2
318.15 K, x1 = 0.9032	1045.24	43.8
318.15 K, x1 = 1	1056.64	54.5
